System: PC3 cells
Assay: NAMPT Cell Proliferation Assay
Type: cell-based
Details: 5 days incubation, cell viability by Cell Titer Glo
Method in brief: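 PC3 cells were plated at 500 cells/well in RPMI with 10% heat-inactivated FBS, left to attach overnight, then given compounds in 10-fold dilutions from 10 μM to 1×10^−5 μM. After 5 days at 37° C and 5% CO2, viability was read by luminescence and IC50s came from sigmoidal fits of percent inhibition.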

IC50 [nM] | SMILES
15.6 | Cc1nc(C(=O)N2CCC(c3ccc(C(=O)NCc4ccn5ccnc5c4)cc3)CC2)c2n1CCCC2 [Example 1099, Example 1099 N-(imidazo[1,2-a]pyridin-7-ylmethyl)-4-{1-[(3-meth-5,6,7,8-tetrahydroimidazo[1,5-a]pyridin-1-yl)carbonyl]piperidin-4-yl}benzamide]
66.9 | O=C(NCc1ccn2ccnc2c1)c1ccc(C2CCN(C(=O)/C=C/c3ccccn3)CC2)cc1 [Example 991, -(imidazo[1,2-a]pyridin-7-ylmethyl)-4-{1-[(2E)-3-(pyridin-2-yl)prop-2-enoyl]piperidin-4-yl}benzamide]

Same assay, conditions: Homo sapiens, PC-3, 120 h, 5 days incubation, cell viability by Cell Titer Glo

IC50 [nM] | SMILES
4.19 | CCc1c(C(=O)N2CCC(c3ccc(C(=O)NCc4ccn5ccnc5c4)cc3)CC2)nnn1CC [Example 1091, 4-{1-[(1,5-diethyl-1H-1,2,3-triazol-4-yl)carbonyl]piperidin-4-yl}-N-(imidazo[1,2-a]pyridin-7-ylmethyl)benzamide]
0.494 | O=C(NCc1ccn2ccnc2c1)c1ccc(C2CCN(C(=O)c3ccc(F)cc3F)CC2)s1 [Example 888, 5-[1-(2,4-difluorobenzoyl)piperidin-4-yl]-N-(imidazo[1,2-a]pyridin-7-ylmethyl)thiophene-2-carboxamide]
1.43 | CC(Oc1cccc(F)c1)C(=O)N1CCC(c2ccc(NC(=O)NCc3ccn4ccnc4c3)cc2)CC1 (stereo not shown) [Example 1065, 1-(4-{1-[2-(3-fluorophenoxy)propanoyl]piperidin-4-yl}phenyl)-3-(imidazo[1,2-a]pyridin-7-ylmethyl)urea]
4.23 | O=C(NCc1ccn2ccnc2c1)Nc1ccc(C2CCN(C(=O)c3coc4ccccc34)CC2)cc1 [Example 1135, 1-{4-[1-(1-benzofuran-3-ylcarbonyl)piperidin-4-yl]phenyl}-3-(imidazo[1,2-a]pyridin-7-ylmethyl)urea]
6.54 | Cc1cc(C(=O)N2CCC(c3ccc(C(=O)NCc4ccn5ccnc5c4)cc3)CC2)n(C(C)(C)C)n1 [Example 981, 4-{1-[(1-tert-butyl-3-methyl-1H-pyrazol-5-yl)carbonyl]piperidin-4-yl}-N-(imidazo[1,2-a]pyridin-7-ylmethyl)benzamide]
10.8 | Cn1c(C(=O)N2CCC(c3ccc(C(=O)NCc4ccn5ccnc5c4)cc3)CC2)cc2occc21 [Example 995, N-(imidazo[1,2-a]pyridin-7-ylmethyl)-4-{1-[(4-methyl-4H-furo[3,2-b]pyrrol-5-yl)carbonyl]piperidin-4-yl}benzamide]
1.23 | O=C(NCc1ccn2ccnc2c1)Nc1ccc(C2CCN(C(=O)c3ccccc3)CC2)cc1F [Example 1069, 1-[4-(1-benzoylpiperidin-4-yl)-2-fluorophenyl]-3-(imidazo[1,2-a]pyridin-7-ylmethyl)urea]
50.3 | O=C(NCc1ccn2ccnc2c1)c1ccc(C2CCN(C(=O)c3ncc(F)cc3F)CC2)cc1 [Example 975, 4-{1-[(3,5-difluoropyridin-2-yl)carbonyl]piperidin-4-yl}-N-(imidazo[1,2-a]pyridin-7-ylmethyl)benzamide]
62 | N#Cc1cc(F)cc(C(=O)N2CCC(c3ccc(C(=O)NCc4ccn5ccnc5c4)cc3)CC2)c1 [Example 996, 4-[1-(3-cyano-5-fluorobenzoyl)piperidin-4-yl]-N-(imidazo[1,2-a]pyridin-7-ylmethyl)benzamide]
6.13 | Cn1nc(C2CC2)cc1C(=O)N1CCC(c2ccc(C(=O)NCc3ccn4ccnc4c3)cc2)CC1 [Example 960, 4-{1-[(3-cyclopropyl-1-methyl-1H-pyrazol-5-yl)carbonyl]piperidin-4-yl}-N-(imidazo[1,2-a]pyridin-7-ylmethyl)benzamide]
19.4 | O=C(NCc1ccn2ccnc2c1)c1ccc(C2CCN(C(=O)c3cccc4ccncc34)CC2)cc1 [Example 997, N-(imidazo[1,2-a]pyridin-7-ylmethyl)-4-[1-(isoquinolin-8-ylcarbonyl)piperidin-4-yl]benzamide]
2.6 | CCCc1c(C(=O)N2CCC(c3ccc(C(=O)NCc4ccn5ccnc5c4)cc3)CC2)cnn1C [Example 1105, N-(imidazo[1,2-a]pyridin-7-ylmethyl)-4-{1-[(1-methyl-5-propyl-1H-pyrazol-4-yl)carbonyl]piperidin-4-yl}benzamide]
3.95 | O=C(NCc1ccc2ncnn2c1)c1ccc(C2CCN(C(=O)c3cc(F)ccc3F)CC2)s1 [Example 835, 5-[1-(2,5-difluorobenzoyl)piperidin-4-yl]-N-([1,2,4]triazolo[1,5-a]pyridin-6-ylmethyl)thiophene-2-carboxamide]
6.38 | N#Cc1ccc(C(=O)N2CCC(c3ccc(C(=O)NCc4ccn5ccnc5c4)cc3)CC2)c(Cl)c1 [Example 934, 4-[1-(2-chloro-4-cyanobenzoyl)piperidin-4-yl]-N-(imidazo[1,2-a]pyridin-7-ylmethyl)benzamide]
9.55 | O=C(NCc1ccn2ccnc2c1)c1ccc(C2CCN(C(=O)c3coc4ccccc34)CC2)cc1 [Example 1098, 4-[1-(1-benzofuran-3-ylcarbonyl)piperidin-4-yl]-N-(imidazo[1,2-a]pyridin-7-ylmethyl)benzamide]
3870 | O=C(NCc1ccn2ccnc2c1)c1ccc(NC(=O)c2ccc(F)cc2F)cc1 [Example 873, 2,4-difluoro-N-{4-[(imidazo[1,2-a]pyridin-7-ylmethyl)carbamoyl]phenyl}benzamide]
25.6 | O=C(NCc1ccn2ccnc2c1)c1ccc(C2CCN(C(=O)c3ccc4scnc4c3)CC2)cc1 [Example 1085, 4-[1-(1,3-benzothiazol-5-ylcarbonyl)piperidin-4-yl]-N-(imidazo[1,2-a]pyridin-7-ylmethyl)benzamide]

Second part, the compound before the results:

SMILES | IC50 [nM]
CC(C)CC1CCCN1C(=O)c1ccc(C(=O)NCc2ccn3ccnc3c2)cc1 (stereo not shown) [Example 877, N-(imidazo[1,2-a]pyridin-7-ylmethyl)-4-{[2-(2-methylpropyl)pyrrolidin-1-yl]carbonyl}benzamide] | > 10000
O=C(NCc1cn2ccnc2cn1)c1ccc(-c2cnn(CCN3CCNCC3)c2)s1 [Example 894, N-(imidazo[1,2-a]pyrazin-6-ylmethyl)-5-{1-[2-(piperazin-1-yl)ethyl]-1H-pyrazol-4-yl}thiophene-2-carboxamide] | 202
O=C(CC1CCCC1)Nc1ccc(C(=O)NCc2cn3ccnc3cc2F)cc1 [Example 1079, 4-[(cyclopentylacetyl)amino]-N-[(7-fluoroimidazo[1,2-a]pyridin-6-yl)methyl]benzamide] | 18.2
CC1(Cn2cc(-c3ccc(C(=O)NCc4ccn5ccnc5c4)s3)cn2)CCN(C(=O)CCNC(=O)CSC[C@H](N)C(=O)O)CC1 [Example 1166, S-{2-[(3-{4-[(4-{5-[(imidazo[1,2-a]pyridin-7-ylmethyl)carbamoyl]thiophen-2-yl}-1H-pyrazol-1-yl)methyl]-4-methylpiperidin-1-yl}-3-oxopropyl)amino]-2-oxoethyl}-L-cysteine] | 26.1
O=C(NCc1ccn2ccnc2c1)c1ccc(C2CCN(C(=O)C3CC=CCC3)CC2)cc1 (stereo not shown) [Example 920, 4-[1-(cyclohex-3-en-1-ylcarbonyl)piperidin-4-yl]-N-(imidazo[1,2-a]pyridin-7-ylmethyl)benzamide] | 7.94
O=C(NCc1ccn2ccnc2c1)Nc1ccc(C2CCN(C(=O)c3cc(C4CC4)no3)CC2)cc1 [Example 1034, 1-(4-{1-[(3-cyclopropyl-1,2-oxazol-5-yl)carbonyl]piperidin-4-yl}phenyl)-3-(imidazo[1,2-a]pyridin-7-ylmethyl)urea] | 6.29
O=C(NCc1ccn2ccnc2c1)Nc1ccc(C2CCN(C(=O)c3cc4ccccn4n3)CC2)cc1 [Example 1143, 1-(imidazo[1,2-a]pyridin-7-ylmethyl)-3-{4-[1-(pyrazolo[1,5-a]pyridin-2-ylcarbonyl)piperidin-4-yl]phenyl}urea] | 17.4
O=C(NCc1ccn2ccnc2c1)c1ccc(-c2cnn(Cc3ccccc3)c2)s1 [Example 885, 5-(1-benzyl-1H-pyrazol-4-yl)-N-(imidazo[1,2-a]pyridin-7-ylmethyl)thiophene-2-carboxamide] | 5.33
O=C(NCc1ccn2ccnc2c1)Nc1ccc(C2CCN(C(=O)C3(c4ccccn4)CC3)CC2)cc1 [Example 1020, 1-(imidazo[1,2-a]pyridin-7-ylmethyl)-3-[4-(1-{[1-(pyridin-2-yl)cyclopropyl]carbonyl}piperidin-4-yl)phenyl]urea] | 0.901
COc1ccc(C(=O)N2CCC(c3ccc(NC(=O)NCc4ccn5ccnc5c4)cc3)CC2)nc1OC [Example 1148, 1-(4-{1-[(5,6-dimethoxypyridin-2-yl)carbonyl]piperidin-4-yl}phenyl)-3-(imidazo[1,2-a]pyridin-7-ylmethyl)urea] | 2.72
CC(C)(C)CC(=O)N1CCC(c2ccc(NC(=O)NCc3ccn4ccnc4c3)cc2)CC1 [Example 940, 1-{4-[1-(3,3-dimethylbutanoyl)piperidin-4-yl]phenyl}-3-(imidazo[1,2-a]pyridin-7-ylmethyl)urea] | 0.691
O=C(NCc1ccc2nccn2c1)c1ccc(S(=O)(=O)c2ccccc2)cc1 [Example 898, N-(imidazo[1,2-a]pyridin-6-ylmethyl)-4-(phenylsulfonyl)benzamide] | 223
COc1cccc(OC)c1C(=O)N1CCC(c2ccc(NC(=O)NCc3ccn4ccnc4c3)cc2)CC1 [Example 949, 1-{4-[1-(2,6-dimethoxybenzoyl)piperidin-4-yl]phenyl}-3-(imidazo[1,2-a]pyridin-7-ylmethyl)urea] | 25.4
CC(C)C(=O)N1CCC(c2ccc(C(=O)NCc3cn4ccnc4cn3)c(F)c2)CC1 [Example 1160, 2-fluoro-N-(imidazo[1,2-a]pyrazin-6-ylmethyl)-4-[1-(2-methylpropanoyl)piperidin-4-yl]benzamide] | 16.3
O=C(CC1CCCC1)Nc1ccc(C(=O)NCc2cn3ccnc3cn2)c(F)c1 [Example 908, 4-[(cyclopentylacetyl)amino]-2-fluoro-N-(imidazo[1,2-a]pyrazin-6-ylmethyl)benzamide] | 11.2

Source: patent US9187472B2 (AbbVie Inc., priority 2012, dated 2015)
